In patent US10508120B2, “TYK2 inhibitors and uses thereof” (Nimbus Lakshmi, Inc., priority 2017, dated 2019):
Like-named read-outs stand apart in the source and are kept apart here.

Columns and labels:
[1] = target: human TYK2 (JH2domain-pseudokinase) (Homo sapiens (Human), UniProt P29597); assay: TYK2 JH2 Domain Binding Assay (KINOMEscan)
How it was run: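 Pseudokinase domain binding was measured by qPCR of tagged, bead-retained kinase after 1 h room-temperature competition, with 0.9% DMSO and compound up to 30,000 nM in 3-fold steps. Hill-equation Kd, duplicate.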

[2] = target: Tyk2 kinase domain (DH1) (Homo sapiens (Human), UniProt P29597); assay: Tyk2 Radioactive Kinase Assay; type: biochemical; conditions: for inhibition at 10 µM: read-out: Tyk2 JH1% Inhibition @ 10 μM
How it was run: (§1)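 Single-point screen: 10 μM test compound, radioactive kinase read-out, percent inhibition reported for each kinase domain.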

[3] = target: JAK2 kinase domain (JH1) (Homo sapiens (Human), UniProt O60674); assay: JAK2 Radioactive Kinase Assay; type: biochemical; conditions: for inhibition at 10 µM: read-out: JAK2 JH1% Inhibition @ 10 μM
How it was run: as §1

[4] = target: Tyk2/JAK2 (heterodimeric complex) (Homo sapiens (Human), UniProt P29597); assay: IL-12 Induced pSTAT4 in Human PBMC; type: cell-based; conditions: 1.7 ng/mL IL-12
Source text: The IL-12 Induced pSTAT4 assay evaluates the inhibition of IL-12 induced STAT4 phophorylation mediated by Tyk2/JAK2 (heterodimeric complex).

[5] = target: JAK2/JAK2 homdimeric complex (Homo sapiens (Human), UniProt O60674); assay: GM-CSF Induced pSTAT5 in Human PBMC; type: cell-based; conditions: GM-CSF 5 ng/mL for 20 minutes, pSTAT5 by MSD, read-out: PBMC_GMCSF_pSTAT5 IC50
Sequence of JAK2/JAK2 homdimeric complex (O60674 whole entry): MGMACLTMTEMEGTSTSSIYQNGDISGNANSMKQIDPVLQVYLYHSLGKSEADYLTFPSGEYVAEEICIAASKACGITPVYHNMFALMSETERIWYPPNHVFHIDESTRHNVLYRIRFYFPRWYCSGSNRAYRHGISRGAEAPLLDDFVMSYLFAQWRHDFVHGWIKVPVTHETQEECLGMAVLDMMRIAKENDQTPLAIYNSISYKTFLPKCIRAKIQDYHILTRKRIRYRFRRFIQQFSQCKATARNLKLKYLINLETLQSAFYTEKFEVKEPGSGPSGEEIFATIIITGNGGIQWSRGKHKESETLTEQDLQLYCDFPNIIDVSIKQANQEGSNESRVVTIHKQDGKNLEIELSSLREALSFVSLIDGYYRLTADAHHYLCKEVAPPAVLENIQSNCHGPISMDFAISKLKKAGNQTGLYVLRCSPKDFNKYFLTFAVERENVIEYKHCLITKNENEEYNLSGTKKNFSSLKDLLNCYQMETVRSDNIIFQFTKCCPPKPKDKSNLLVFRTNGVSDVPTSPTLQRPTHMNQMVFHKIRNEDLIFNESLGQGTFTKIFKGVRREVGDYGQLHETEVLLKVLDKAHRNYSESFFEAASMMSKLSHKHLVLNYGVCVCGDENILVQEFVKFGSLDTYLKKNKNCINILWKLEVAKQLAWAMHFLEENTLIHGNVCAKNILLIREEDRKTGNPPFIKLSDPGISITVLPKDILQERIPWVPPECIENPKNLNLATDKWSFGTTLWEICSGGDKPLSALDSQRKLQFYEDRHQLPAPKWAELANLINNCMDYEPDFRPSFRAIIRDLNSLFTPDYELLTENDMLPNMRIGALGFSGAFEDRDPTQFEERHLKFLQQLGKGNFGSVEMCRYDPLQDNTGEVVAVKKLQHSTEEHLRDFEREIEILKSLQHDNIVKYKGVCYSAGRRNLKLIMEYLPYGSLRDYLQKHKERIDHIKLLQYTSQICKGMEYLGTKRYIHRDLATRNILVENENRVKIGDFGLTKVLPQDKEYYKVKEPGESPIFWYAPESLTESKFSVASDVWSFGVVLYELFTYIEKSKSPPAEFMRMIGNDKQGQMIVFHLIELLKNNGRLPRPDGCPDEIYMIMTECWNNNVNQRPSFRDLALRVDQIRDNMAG
Sequence of JAK2/JAK2 homdimeric complex (P32927 17-897 partner): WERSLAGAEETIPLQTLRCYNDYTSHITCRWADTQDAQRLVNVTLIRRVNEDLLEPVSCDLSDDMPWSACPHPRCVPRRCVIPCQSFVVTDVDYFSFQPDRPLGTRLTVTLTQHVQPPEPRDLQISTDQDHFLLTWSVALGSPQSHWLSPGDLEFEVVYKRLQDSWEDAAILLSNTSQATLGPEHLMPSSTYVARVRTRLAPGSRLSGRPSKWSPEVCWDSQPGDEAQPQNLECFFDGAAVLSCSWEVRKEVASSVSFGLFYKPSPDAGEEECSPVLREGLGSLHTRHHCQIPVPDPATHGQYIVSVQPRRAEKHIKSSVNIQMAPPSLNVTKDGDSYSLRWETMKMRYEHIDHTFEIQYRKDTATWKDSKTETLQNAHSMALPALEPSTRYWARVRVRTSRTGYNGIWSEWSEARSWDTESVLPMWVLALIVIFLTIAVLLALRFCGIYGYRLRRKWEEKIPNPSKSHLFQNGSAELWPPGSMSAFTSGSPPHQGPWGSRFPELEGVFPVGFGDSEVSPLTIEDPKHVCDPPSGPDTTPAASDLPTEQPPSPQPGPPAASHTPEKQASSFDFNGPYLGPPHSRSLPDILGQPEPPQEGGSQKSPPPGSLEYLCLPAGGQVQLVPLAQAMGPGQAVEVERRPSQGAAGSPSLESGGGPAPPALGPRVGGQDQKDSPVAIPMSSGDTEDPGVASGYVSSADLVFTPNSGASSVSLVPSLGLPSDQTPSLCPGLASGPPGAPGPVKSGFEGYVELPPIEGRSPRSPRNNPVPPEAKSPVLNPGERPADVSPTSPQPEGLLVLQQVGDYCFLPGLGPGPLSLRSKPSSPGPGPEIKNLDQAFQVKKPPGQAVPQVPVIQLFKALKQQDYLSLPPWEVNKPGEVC

Sequence of human TYK2 (JH2domain-pseudokinase) (P29597 556-888): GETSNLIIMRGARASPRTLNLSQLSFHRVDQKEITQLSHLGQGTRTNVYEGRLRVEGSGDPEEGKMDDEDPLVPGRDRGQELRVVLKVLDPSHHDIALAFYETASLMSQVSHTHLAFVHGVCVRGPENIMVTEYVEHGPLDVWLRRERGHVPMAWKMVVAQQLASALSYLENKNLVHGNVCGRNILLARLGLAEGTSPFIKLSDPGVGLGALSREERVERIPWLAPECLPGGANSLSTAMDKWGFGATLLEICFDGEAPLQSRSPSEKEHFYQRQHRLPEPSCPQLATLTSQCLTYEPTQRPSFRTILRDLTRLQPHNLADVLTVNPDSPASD
Sequence of Tyk2/JAK2 (heterodimeric complex) (P29597 whole entry, other chains not shown): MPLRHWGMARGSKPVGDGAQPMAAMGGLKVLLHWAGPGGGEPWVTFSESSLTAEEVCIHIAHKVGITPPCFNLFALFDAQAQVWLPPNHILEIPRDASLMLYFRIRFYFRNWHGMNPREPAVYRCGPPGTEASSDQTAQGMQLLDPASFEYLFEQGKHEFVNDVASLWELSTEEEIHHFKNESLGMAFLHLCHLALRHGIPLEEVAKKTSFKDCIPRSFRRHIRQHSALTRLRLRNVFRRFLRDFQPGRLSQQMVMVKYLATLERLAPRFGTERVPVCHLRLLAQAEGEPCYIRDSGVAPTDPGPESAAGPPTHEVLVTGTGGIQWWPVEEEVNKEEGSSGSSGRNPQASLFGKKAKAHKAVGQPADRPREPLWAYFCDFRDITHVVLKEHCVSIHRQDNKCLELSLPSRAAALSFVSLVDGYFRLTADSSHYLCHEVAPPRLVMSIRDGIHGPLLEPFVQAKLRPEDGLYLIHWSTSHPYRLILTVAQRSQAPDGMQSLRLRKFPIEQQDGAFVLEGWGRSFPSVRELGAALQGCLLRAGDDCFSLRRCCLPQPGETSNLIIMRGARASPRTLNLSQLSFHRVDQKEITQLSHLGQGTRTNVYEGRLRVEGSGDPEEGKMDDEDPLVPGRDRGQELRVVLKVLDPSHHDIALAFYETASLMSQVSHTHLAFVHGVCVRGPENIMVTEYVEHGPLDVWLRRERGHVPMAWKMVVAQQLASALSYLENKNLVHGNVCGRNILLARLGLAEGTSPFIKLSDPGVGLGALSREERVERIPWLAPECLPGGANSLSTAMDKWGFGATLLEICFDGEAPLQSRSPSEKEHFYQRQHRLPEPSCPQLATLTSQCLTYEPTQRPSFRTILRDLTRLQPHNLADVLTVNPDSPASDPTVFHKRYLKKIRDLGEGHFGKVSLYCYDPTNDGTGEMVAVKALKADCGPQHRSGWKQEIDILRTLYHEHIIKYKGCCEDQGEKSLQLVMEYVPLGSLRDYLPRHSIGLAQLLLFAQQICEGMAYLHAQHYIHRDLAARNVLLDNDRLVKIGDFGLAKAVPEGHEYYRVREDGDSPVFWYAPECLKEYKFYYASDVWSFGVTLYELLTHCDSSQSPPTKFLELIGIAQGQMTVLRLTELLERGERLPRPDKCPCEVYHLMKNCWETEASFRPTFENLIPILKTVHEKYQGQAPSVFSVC
Sequence of JAK2 kinase domain (JH1) (O60674 849-1124): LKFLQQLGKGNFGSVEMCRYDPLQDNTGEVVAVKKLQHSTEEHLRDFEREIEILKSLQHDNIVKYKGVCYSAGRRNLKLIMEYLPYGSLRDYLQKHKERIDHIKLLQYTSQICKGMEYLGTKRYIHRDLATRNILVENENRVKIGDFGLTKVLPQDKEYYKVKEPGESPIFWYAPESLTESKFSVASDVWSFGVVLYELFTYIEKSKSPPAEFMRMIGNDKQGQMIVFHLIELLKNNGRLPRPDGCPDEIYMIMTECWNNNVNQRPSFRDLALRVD
Sequence of Tyk2 kinase domain (DH1) (P29597 897-1176): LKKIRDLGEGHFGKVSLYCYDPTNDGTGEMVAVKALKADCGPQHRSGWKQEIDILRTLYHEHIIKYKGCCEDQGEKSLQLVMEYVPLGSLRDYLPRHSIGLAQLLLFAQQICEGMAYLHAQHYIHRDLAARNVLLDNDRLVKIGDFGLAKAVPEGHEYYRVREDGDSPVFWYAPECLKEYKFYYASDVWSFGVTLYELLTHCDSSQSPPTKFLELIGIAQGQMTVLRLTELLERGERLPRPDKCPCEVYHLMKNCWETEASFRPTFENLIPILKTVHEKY

SMILES	Kd [1] [nM]	inhibition at 10 µM ([2]; compound at 10 μM, ATP 10 μM) [%]	inhibition at 10 µM ([3]; compound at 10 μM, ATP 10 μM) [%]	IC50 [4] [nM]	IC50 [5] [µM]	inhibition at 10 µM ([2]; 10 μM compound, 10 μM ATP) [%]	inhibition at 10 µM ([3]; 10 μM compound, 10 μM ATP) [%]	Tyk2 JH1% Inhibition @ 10 μM ([2]; compound at 10 μM, ATP 10 μM)	JAK2 JH1% Inhibition @ 10 μM ([3]; compound at 10 μM, ATP 10 μM)	Tyk2 JH1% Inhibition @ 10 μM ([2]; 10 μM compound, 10 μM ATP)	JAK2 JH1% Inhibition @ 10 μM ([3]; 10 μM compound, 10 μM ATP)
CNc1cc(Nc2cccn(C3CCCOC3)c2=O)nc2c(C(=O)NC3CCC3)cnn12 (racemic) [I-324]	< 0.2	< 50	< 50	< 100	> 50	–	–	–	–	–	–
CNc1cc(Nc2cccn(-c3ccn(C4CC4)n3)c2=O)nc2c(C(=O)N[C@@H]3C[C@@H]3F)cnn12 (stereo in doubt) [I-106, 5-((1-(1-cyclopropyl-1H-pyrazol-3-yl)-2-oxo-1,2-dihydropyridin-3-yl)amino)-N-((1R,2S)-2-fluorocyclopropyl)-7-(methylamino)pyrazolo[1,5-a]pyrimidine-3-carboxamide]	< 0.2	< 50	< 50	< 100	> 12.5	–	–	–	–	–	–
CNc1cc(Nc2cccn(-c3ccnc(C)n3)c2=O)nc2c(C(=O)N[C@@H]3C[C@@H]3F)cnn12 (stereo in doubt) [I-124, N-((1R,2S)-2-fluorocyclopropyl)-7-(methylamino)-5-((1-(2-methylpyrimidin-4-yl)-2-oxo-1,2-dihydropyridin-3-yl)amino)pyrazolo[1,5-a]pyrimidine-3-carboxamide]	< 0.2	< 50	< 50	< 100	> 12.5	–	–	–	–	–	–
[2H]C([2H])([2H])Nc1cc(Nc2cccnc2OC)nc2c(C(=O)N[C@@H]3C[C@@H]3F)cnn12 (stereo in doubt) [I-374, N-((1R,2S)-2-fluorocyclopropyl)-5-((2-methoxypyridin-3-yl)amino)-7-((methyl-d3)amino)pyrazolo[1,5-a]pyrimidine-3-carboxamide]	< 0.2	< 50	< 50	< 100	> 50	–	–	–	–	–	–
[2H]C([2H])([2H])Nc1cc(Nc2cccnc2OC2CC2)nc2c(C(=O)N[C@@H]3C[C@@H]3F)cnn12 (stereo in doubt) [I-375, 5-((2-cyclopropoxypyridin-3-yl)amino)-N-((1R,2S)-2-fluorocyclopropyl)-7-((methyl-d3)amino)pyrazolo[1,5-a]pyrimidine-3-carboxamide]	< 0.2	< 50	50 to 70	< 100	> 50	–	–	–	–	–	–
COc1ncccc1Nc1cc(NCCCN2CCOCC2)n2ncc(C(=O)N[C@@H]3C[C@@H]3F)c2n1 (stereo in doubt) [I-377, N-((1R,2S)-2-fluorocyclopropyl)-5-((2-methoxypyridin-3-yl)amino)-7-((3-morpholinopropyl)amino)pyrazolo[1,5-a]pyrimidine-3-carboxamide]	0.2 to 1	< 50	< 50	100 to 500	> 50	–	–	–	–	–	–
[2H]C([2H])([2H])Oc1ncccc1Nc1cc(NC)n2ncc(C(=O)N[C@@H]3CC[C@@H]3O)c2n1 (stereo in doubt) [I-391, N-(2-hydroxycyclobutyl)-5-((2-(methoxy-d3)pyridin-3-yl)amino)-7-(methylamino)pyrazolo [1,5-a]pyrimidine-3-carboxamide]	< 0.2	< 50	< 50	< 100	> 50	–	–	–	–	–	–
CNc1cc(Nc2cccn(-c3nc(C)co3)c2=O)nc2c(C(=O)N[C@@H]3CC[C@H]3O)cnn12 (stereo in doubt) [I-658, N-((1R,2R)-2-hydroxycyclobutyl)-7-(methylamino)-5-((1-(4-methyloxazol-2-yl)-2-oxo-1,2-dihydropyridin-3-yl)amino)pyrazolo[1,5-a]pyrimidine-3-carboxamide]	< 0.2	< 50	< 50	< 100	> 50	–	–	–	–	–	–
CNc1cc(Nc2cccn(-c3ncc(C)s3)c2=O)nc2c(C(=O)N[C@H]3CC[C@@H]3O)cnn12 (stereo in doubt) [I-676, N-(2-hydroxycyclobutyl)-7-(methylamino)-5-((1-(5-methylthiazol-2-yl)-2-oxo-1,2-dihydropyridin-3-yl)amino)pyrazolo[1,5-a]pyrimidine-3-carboxamide]	< 0.2	< 50	< 50	< 100	> 2.5	–	–	–	–	–	–
CNc1cc(Nc2cc(C)cc(C)c2)nc2c(C(N)=O)cnn12 [I-2, 5-((3,5-dimethylphenyl)amino)-7-(methylamino)pyrazolo[1,5-a]pyrimidine-3-carboxamide]	< 0.2	< 50	< 50	< 100	> 50	–	–	–	–	–	–
CNc1cc(Nc2cccn([C@H]3CC[C@@H]3O)c2=O)nc2c(C(=O)N[C@@H]3C[C@@H]3F)cnn12 [I-916]	–	–	–	< 100	> 50	< 50	< 50	–	–	–	–
CNc1cc(Nc2cccn(-c3cccc(F)c3)c2=O)nc2c(C(=O)N[C@@H]3CC[C@H]3O)cnn12 [I-946]	–	–	–	< 100	> 50	–	–	–	–	A (percent inhibition at 10 μM lower than 50)	A (percent inhibition at 10 μM lower than 50)
CNc1cc(Nc2cccn([C@@H]3CCC[C@H](OC)C3)c2=O)nc2c(C(=O)N[C@@H]3CC[C@H]3OC)cnn12 [I-995]	–	–	–	< 100	> 50	–	–	–	–	A (percent inhibition at 10 μM lower than 50)	A (percent inhibition at 10 μM lower than 50)

Second part, led by results:

Kd [1] [nM]	inhibition at 10 µM ([2]; compound at 10 μM, ATP 10 μM) [%]	inhibition at 10 µM ([3]; compound at 10 μM, ATP 10 μM) [%]	IC50 [4] [nM]	IC50 [5] [µM]	inhibition at 10 µM ([2]; 10 μM compound, 10 μM ATP) [%]	inhibition at 10 µM ([3]; 10 μM compound, 10 μM ATP) [%]	SMILES	Tyk2 JH1% Inhibition @ 10 μM ([2]; compound at 10 μM, ATP 10 μM)	JAK2 JH1% Inhibition @ 10 μM ([3]; compound at 10 μM, ATP 10 μM)	Tyk2 JH1% Inhibition @ 10 μM ([2]; 10 μM compound, 10 μM ATP)	JAK2 JH1% Inhibition @ 10 μM ([3]; 10 μM compound, 10 μM ATP)
< 0.2	< 50	< 50	100 to 500	> 50	–	–	CNc1cc(Nc2cccc3ocnc23)nc2c(C(=O)N[C@@H]3CC[C@H]3O)cnn12 (racemic) [I-756, 5-(benzo[d]oxazol-4-ylamino)-N-(2-hydroxycyclobutyl)-7-(methylamino) pyrazolo[1,5-a]pyrimidine-3-carboxamide]	–	–	–	–
< 0.2	< 50	< 50	< 100	> 50	–	–	CNc1cc(-c2cn(C(C)C)c3ncccc23)nc2c(C(=O)N[C@@H]3C[C@@H]3F)cnn12 (stereo in doubt) [I-225, N-((1R,2S)-2-fluorocyclopropyl)-5-(1-isopropyl-1H-pyrrolo[2,3-b]pyridin-3-yl)-7-(methylamino)pyrazolo[1,5-a]pyrimidine-3-carboxamide]	–	–	–	–
< 0.2	< 50	50 to 70	< 100	> 50	–	–	CNc1cc(Nc2cccnc2OC)nc2c(C(=O)N[C@@H]3CC[C@H]3O)cnn12 (stereo in doubt) [I-363, N-((1R,2R)-2-hydroxycyclobutyl)-5-((2-methoxypyridin-3-yl)amino)-7-(methylamino)pyrazolo[1,5-a]pyrimidine-3-carboxamide]	–	–	–	–
< 0.2	< 50	< 50	< 100	> 50	–	–	CNc1cc(Nc2cccnc2OC2CC2)nc2c(C(=O)N[C@@H]3CC[C@H]3O)cnn12 (stereo in doubt) [I-366, 5-((2-cyclopropoxypyridin-3-yl)amino)-N-((1R,2R)-2-hydroxycyclobutyl)-7-(methylamino)pyrazolo[1,5-a]pyrimidine-3-carboxamide]	–	–	–	–
< 0.2	–	–	< 100	> 12.5	–	–	[2H]C([2H])([2H])Oc1ncccc1Nc1cc(NC)n2ncc(C(=O)N[C@H]3CC[C@H]3O)c2n1 (stereo in doubt) [I-399, N-((1 S,2R)-2-hydroxycyclobutyl)-5-((2-(methoxy-d3)pyridin-3-yl)amino)-7-(methylamino) pyrazolo[1,5-a]pyrimidine-3-carboxamide]	A (percent inhibition at 10 μM lower than 50)	A (percent inhibition at 10 μM lower than 50)	–	–
–	–	–	100 to 500	> 50	< 50	< 50	CNc1cc(Nc2cccc3ocnc23)nc2c(C(=O)N[C@@H]3CC[C@H]3O)cnn12 [I-857]	–	–	–	–
–	–	–	< 100	> 50	< 50	< 50	CNc1cc(Nc2cccn(C3CCCCC3)c2=O)nc2c(C(=O)N[C@@H]3CC[C@H]3O)cnn12 [I-943]	–	–	–	–
–	–	–	100 to 500	> 2.5	–	–	CNc1cc(-c2cn(CCN3CCN(C)CC3)c3ncccc23)nc2c(C(=O)N[C@H]3CC[C@@H]3OC)cnn12 [I-952]	–	–	A (percent inhibition at 10 μM lower than 50)	A (percent inhibition at 10 μM lower than 50)
–	–	–	< 100	> 50	–	–	CNc1cc(-c2cn(C3CC3)c3ncccc23)nc2c(C(=O)N[C@H]3CC[C@H]3O)cnn12 [I-992, 5-(1-cyclopropyl-1H-pyrrolo[2,3-b]pyridin-3-yl)-N-((1S,2R)-2-hydroxycyclobutyl)-7-(methylamino)pyrazolo[1,5-a]pyrimidine-3-carboxamide]	–	–	A (percent inhibition at 10 μM lower than 50)	A (percent inhibition at 10 μM lower than 50)
